Measured values published in ChEMBL document CHEMBL6096738, “Optimization of Single Relaxin B-Chain Peptide Leads to the Identification of R2R01, a Potent, Long-Acting RXFP1 Agonist for Cardiovascular and Renal Diseases” (J Med Chem, 2025).
Starred links: 1 amine or outer side, 2 acyl side, 3 side chain; linkers in the order of their positions; H or OH if unused. Non-standard residues stand in square brackets, D forms with d. Residues, ends and D or L forms follow the SMILES beside them. Groups on a side chain read outwards from the residue. *: point of attachment. X3 = CCCCCCCCCCCCCCCCCC(=O)N[C@@H](CCC(=O)N[C@@H](CCC(=O)N[C@@H](CCC(=O)NCCCOCCOCCOCCCNC(=O)CCC(=O)NCCCOCCOCCOCCCNC(=O)CCC(=O)NCCCOCCOCCOCCCN*)C(=O)O)C(=O)O)C(=O)O; PEG12 = NCCOCCOCCOCCOCCOCCOCCOCCOCCOCCOCCOCCOCCC(=O)O; γGlu = O=C(O)[C@H](CCC(=O)[*:2])N[*:1]; Stearoyl = CCCCCCCCCCCCCCCCCC(=O)*; Palmitoyl = CCCCCCCCCCCCCCCC(=O)*; Suc = O=C(CCC(=O)[*:2])[*:1]; Nle = CCCC[C@H](N)C(=O)O; AEEA = NCCOCCOCC(=O)O; Aib = CC(C)(N)C(=O)O

Legend:
[1] = Induction of mast cell degranulation in human LAD2 cells assessed as beta-hexosaminidase release by measuring 4-methylumbelliferyl N-acetyl-beta-D-glucosaminide hydrolysis incubated for 30 mins by plate reader analysis; assay type: toxicity, cell-based; conditions: probe 4-methylumbelliferyl N-acetyl-beta-D-glucosaminide
[2] = Induction of mast cell degranulation in human LAD2 cells assessed as beta-hexosaminidase release by measuring maximal efficacy of 4-methylumbelliferyl N-acetyl-beta-D-glucosaminide hydrolysis at 10 uM incubated for 30 mins by plate reader analysis relative to control; assay type: toxicity, cell-based; conditions: probe 4-methylumbelliferyl N-acetyl-beta-D-glucosaminide
Relaxin receptor 1 [3] = molecular target: T1, Relaxin receptor 1 (Homo sapiens, UniProt Q9HBX9); assay: Agonist activity at human RXFP1 expressed in human OVCAR-5 cells assessed as intracellular cAMP accumulation incubated for 30 mins by HTRF assay; assay type: functional, cell-based
T1 sequence (Q9HBX9 whole entry): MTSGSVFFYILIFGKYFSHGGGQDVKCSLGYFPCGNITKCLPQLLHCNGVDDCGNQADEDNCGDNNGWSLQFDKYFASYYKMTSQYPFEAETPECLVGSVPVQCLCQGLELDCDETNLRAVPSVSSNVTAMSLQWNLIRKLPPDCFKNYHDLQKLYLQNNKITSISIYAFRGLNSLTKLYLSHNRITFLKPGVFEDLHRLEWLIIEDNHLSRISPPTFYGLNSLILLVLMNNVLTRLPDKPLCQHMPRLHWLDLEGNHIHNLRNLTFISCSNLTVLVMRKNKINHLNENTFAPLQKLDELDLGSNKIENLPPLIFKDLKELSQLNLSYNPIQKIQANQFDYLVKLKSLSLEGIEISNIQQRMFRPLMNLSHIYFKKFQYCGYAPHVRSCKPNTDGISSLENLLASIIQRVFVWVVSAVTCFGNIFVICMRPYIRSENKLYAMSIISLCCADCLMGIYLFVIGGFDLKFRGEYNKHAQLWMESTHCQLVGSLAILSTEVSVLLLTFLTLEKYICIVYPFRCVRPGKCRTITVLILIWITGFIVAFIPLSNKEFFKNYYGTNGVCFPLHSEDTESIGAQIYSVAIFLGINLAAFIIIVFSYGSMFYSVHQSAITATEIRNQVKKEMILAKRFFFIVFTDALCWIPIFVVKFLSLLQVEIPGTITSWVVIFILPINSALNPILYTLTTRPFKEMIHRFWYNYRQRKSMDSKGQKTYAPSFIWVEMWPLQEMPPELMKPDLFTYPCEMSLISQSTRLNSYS

[4] = molecular target: T2, Relaxin receptor 1 (Homo sapiens) (UniProt Q9HBX9); assay: Agonist activity at human RXFP1 expressed in human OVCAR-5 cells assessed as intracellular cAMP accumulation by measuring maximal efficacy incubated for 30 mins by HTRF assay relative to control; assay type: functional, cell-based; conditions: filed as agonist
T2 sequence (whole entry): T1 sequence (Q9HBX9 whole entry)

Relaxin receptor 1 [5] = molecular target: T1, Relaxin receptor 1; assay: Agonist activity at human RXFP1 expressed in 2%HSA treated human OVCAR-5 cells assessed as intracellular cAMP accumulation incubated for 30 mins with 2% HSA pretreated compound by HTRF assay; assay type: functional, cell-based
[6] = molecular target: T2, Relaxin receptor 1 (Homo sapiens); assay: Agonist activity at human RXFP1 expressed in 2%HSA treated human OVCAR-5 cells assessed as intracellular cAMP accumulation by measuring maximal efficacy incubated for 30 mins with 2% HSA pretreated compound by HTRF assay relative to control; assay type: functional, cell-based; conditions: filed as agonist
[7] = Induction of immune response in human CD4+ T cells assessed as increase in auto reactive T cells at 3 uM preincubated with monocyte-derived immature dendritic cells followed by T cell addition and further stimulated on day 7 and 14 with autologous dendritic cells and measured after 5 days post last stimulation by IFNgamma-Elispot analysis; assay type: toxicity, cell-based; conditions: 120 h
[8] = Half-life in male Sprague-Dawley rat at 1 mg/kg, iv measured after 198 hrs by LC-HRMS analysis; assay type: ADME, organism-based; conditions: in vivo
[9] = Drug metabolism in male Sprague-Dawley rat assessed as fatty acid chain oxidation mediated M+16 metabolite formation by measuring metabolite to parent compound AUC ratio at 3 mg/kg, sc measured after 198 hrs by LC-HRMS analysis; assay type: ADME, organism-based; conditions: in vivo
[10] = Half-life in male Beagle dog at 1 mg/kg, iv measured after 198 hrs by LC-HRMS analysis; assay type: ADME, organism-based, Canis lupus familiaris; conditions: in vivo
[11] = Drug metabolism in male Beagle dog assessed as fatty acid chain oxidation mediated M+16 metabolite formation by measuring metabolite to parent compound AUC ratio at 1 mg/kg, iv measured after 198 hrs by LC-HRMS analysis; assay type: ADME, organism-based, Canis lupus familiaris; conditions: in vivo
[12] = Half-life in female Gottingen pig at 1 mg/kg, iv measured after 198 hrs by LC-HRMS analysis; assay type: ADME, organism-based, Sus scrofa; conditions: in vivo
[13] = Drug metabolism in female Gottingen pig assessed as fatty acid chain oxidation mediated M+16 metabolite formation by measuring metabolite to parent compound AUC ratio at 1 mg/kg, iv measured after 198 hrs by LC-HRMS analysis; assay type: ADME, organism-based, Sus scrofa; conditions: in vivo
[14] = Induction of mast cell degranulation in human LAD2 cells assessed as beta-hexosaminidase release by measuring maximal efficacy of 4-methylumbelliferyl N-acetyl-beta-D-glucosaminide hydrolysis at 33 uM incubated for 30 mins by plate reader analysis relative to control; assay type: toxicity, cell-based; conditions: probe 4-methylumbelliferyl N-acetyl-beta-D-glucosaminide

SMILES	EC50 at 30 min [1] [µM]	Emax at 0.5 h, 10 µM [2] [%]	EC50 (Relaxin receptor 1 [3]) [µM]	Emax [4] [%]	EC50 (Relaxin receptor 1 [5]) [µM]	Emax [6] [%]	Activity [7]	half-life [8] [h]	Ratio AUC [9]	half-life [10] [h]	Ratio AUC [11]	half-life [12] [h]	Ratio AUC [13]	Emax at 0.5 h, 33 µM [14] [%]
CC[C@H](C)[C@H](NC(=O)[C@H](Cc1ccccc1)NC(=O)[C@H](CCC(=O)O)NC(=O)[C@H](CCCCN)NC(=O)[C@H](C)NC(=O)[C@H](C)NC(=O)[C@H](CCC(N)=O)NC(=O)CNC(=O)[C@H](CCC(=O)O)NC(=O)[C@H](CC(C)C)NC(=O)[C@H](Cc1ccc(O)cc1)NC(=O)[C@H](CO)NC(=O)[C@H](CO)NC(=O)[C@@H](NC(=O)[C@H](CC(=O)O)NC(=O)[C@H](CO)NC(=O)[C@@H](NC(=O)[C@H](Cc1ccccc1)NC(=O)[C@@H](NC(=O)CNC(=O)[C@H](CCC(=O)O)NC(=O)[C@H](C)NC(=O)[C@@H](N)Cc1c[nH]cn1)[C@@H](C)O)[C@@H](C)O)C(C)C)C(=O)N[C@@H](C)C(=O)N[C@@H](Cc1c[nH]c2ccccc12)C(=O)N[C@@H](CC(C)C)C(=O)N[C@H](C(=O)N[C@@H](CCCCN)C(=O)NCC(=O)N[C@@H](CCCNC(=N)N)C(N)=O)C(C)C	[…]	2.5												
CCCCCCCCCCCCCCCC(=O)N[C@@H](CCC(=O)N[C@@H](CCC(=O)N[C@@H](CCC(=O)NC(=O)CCOCCOCCOCCOCCOCCOCCOCCOCCOCCOCCOCCOCCNCCCC[C@H](NC(=O)[C@H](C)NC(=O)[C@H](CCCNC(=N)N)NC(=O)[C@@H](NC(=O)[C@H](CCCCN)NC(=O)[C@H](CCC(=O)O)NC(=O)[C@H](CCCNC(=N)N)NC(=O)CNC(=O)[C@H](CCC(=O)O)NC(=O)[C@H](CC(C)C)NC(C)=O)C(C)C)C(=O)N[C@H](C(=O)NC(C)(C)C(=O)NC(C)(C)C(=O)N[C@@H](CCC(=O)O)C(=O)NCC(=O)N[C@@H](CCCC)C(=O)N[C@@H](CO)C(=O)N[C@H](C(=O)N[C@@H](Cc1c[nH]c2ccccc12)C(=O)N[C@@H](CO)C(=O)NC(C)(C)C(=O)N[C@@H](CCCNC(=N)N)C(=O)N[C@@H](CCCCN)C(=O)N[C@@H](CCCCNC(C)=O)C(N)=O)[C@@H](C)O)[C@@H](C)CC)C(=O)O)C(=O)O)C(=O)O	2.42	59.7	0.0062	78	0.132	73								
CCCC[C@H](NC(=O)CNC(=O)[C@H](CCC(=O)O)NC(=O)C(C)(C)NC(=O)C(C)(C)NC(=O)[C@@H](NC(=O)[C@H](CCCCNC(C)=O)NC(=O)[C@H](C)NC(=O)[C@H](CCCNC(=N)N)NC(=O)[C@@H](NC(=O)[C@H](CCCCN)NC(=O)[C@H](CCC(=O)O)NC(=O)[C@H](CCCNC(=N)N)NC(=O)CNC(=O)[C@H](CCC(=O)O)NC(=O)[C@H](CC(C)C)NC(C)=O)C(C)C)[C@@H](C)CC)C(=O)N[C@@H](CO)C(=O)N[C@H](C(=O)N[C@@H](Cc1c[nH]c2ccccc12)C(=O)N[C@@H](CO)C(=O)NC(C)(C)C(=O)N[C@@H](CCCNC(=N)N)C(=O)N[C@@H](CCCCN)C(=O)N[C@@H](CCCCNC(C)=O)C(N)=O)[C@@H](C)O (Ac-LEGREKVRAK(Ac)I[Aib][Aib]EG[Nle]STWS[Aib]RKK(Ac)-NH2)							Non-toxic							
CCCCCCCCCCCCCCCCCC(=O)N[C@@H](CCC(=O)N[C@@H](CCC(=O)N[C@@H](CCC(=O)NCCCOCCOCCOCCCNC(=O)CCC(=O)NCCCOCCOCCOCCCNC(=O)CCC(=O)NCCCOCCOCCOCCCNC(=O)CCC(=O)NCCCC[C@H](NC(=O)CNC(=O)[C@H](CCC(=O)O)NC(=O)C(C)(C)NC(=O)C(C)(C)NC(=O)[C@@H](NC(=O)[C@H](CCCCNC(C)=O)NC(=O)[C@H](C)NC(=O)[C@H](CCCNC(=N)N)NC(=O)[C@@H](NC(=O)[C@H](CCCCN)NC(=O)[C@H](CCC(=O)O)NC(=O)[C@H](CCCNC(=N)N)NC(=O)CNC(=O)[C@H](CCC(=O)O)NC(=O)[C@H](CC(C)C)NC(C)=O)C(C)C)[C@@H](C)CC)C(=O)N[C@@H](CO)C(=O)N[C@H](C(=O)N[C@@H](Cc1c[nH]c2ccccc12)C(=O)N[C@@H](CO)C(=O)NC(C)(C)C(=O)N[C@@H](CCCNC(=N)N)C(=O)N[C@@H](CCCCN)C(=O)N[C@@H](CCCCNC(C)=O)C(N)=O)[C@@H](C)O)C(=O)O)C(=O)O)C(=O)O (Ac-LEGREKVRAK(Ac)I[Aib][Aib]EGK([Suc-X3])STWS[Aib]RKK(Ac)-NH2)	6.43	70	0.0002	96	0.0108	97		5.13						
CCCCCCCCCCCCCCCC(=O)N[C@@H](CCC(=O)N[C@@H](CCC(=O)N[C@@H](CCC(=O)NCCOCCOCC(=O)NCCOCCOCC(=O)NCCOCCOCC(=O)NCCCC[C@H](NC(=O)[C@H](CCCCNC(C)=O)NC(=O)[C@H](CCCCN)NC(=O)[C@H](CCCNC(=N)N)NC(=O)C(C)(C)NC(=O)[C@H](CO)NC(=O)[C@H](Cc1c[nH]c2ccccc12)NC(=O)[C@@H](NC(=O)[C@H](CO)NC(=O)[C@H](CCCC)NC(=O)CNC(=O)[C@H](CCC(=O)O)NC(=O)C(C)(C)NC(=O)C(C)(C)NC(=O)[C@@H](NC(=O)[C@H](CCCCNC(C)=O)NC(=O)[C@H](C)NC(=O)[C@H](CCCNC(=N)N)NC(=O)[C@@H](NC(=O)[C@H](CCCCN)NC(=O)[C@H](CCC(=O)O)NC(=O)[C@H](CCCNC(=N)N)NC(=O)CNC(=O)[C@H](CCC(=O)O)NC(=O)[C@H](CC(C)C)NC(C)=O)C(C)C)[C@@H](C)CC)[C@@H](C)O)C(N)=O)C(=O)O)C(=O)O)C(=O)O (Ac-LEGREKVRAK(Ac)I[Aib][Aib]EG[Nle]STWS[Aib]RKK(Ac)K([AEEA-AEEA-AEEA-γGlu-γGlu-γGlu-Palmitoyl])-NH2)	3.9		0.001	80	0.087	96		5.7	0.025	4.4	0.99	12.9	0.7	67.2
CCCCCCCCCCCCCCCCCC(=O)N[C@@H](CCC(=O)N[C@@H](CCC(=O)N[C@@H](CCC(=O)NCCCC[C@H](NC(=O)CCOCCOCCOCCOCCOCCOCCOCCOCCOCCOCCOCCOCCNC(=O)[C@H](CCCCNC(C)=O)NC(=O)[C@H](CCCCN)NC(=O)[C@H](CCCNC(=N)N)NC(=O)C(C)(C)NC(=O)[C@H](CO)NC(=O)[C@H](Cc1c[nH]c2ccccc12)NC(=O)[C@@H](NC(=O)[C@H](CO)NC(=O)[C@H](CCCC)NC(=O)CNC(=O)[C@H](CCC(=O)O)NC(=O)C(C)(C)NC(=O)C(C)(C)NC(=O)[C@@H](NC(=O)[C@H](CCCCNC(C)=O)NC(=O)[C@H](C)NC(=O)[C@H](CCCNC(=N)N)NC(=O)[C@@H](NC(=O)[C@H](CCCCN)NC(=O)[C@H](CCC(=O)O)NC(=O)[C@H](CCCNC(=N)N)NC(=O)CNC(=O)[C@H](CCC(=O)O)NC(=O)[C@H](CC(C)C)NC(C)=O)C(C)C)[C@@H](C)CC)[C@@H](C)O)C(N)=O)C(=O)O)C(=O)O)C(=O)O (Ac-LEGREKVRAK(Ac)I[Aib][Aib]EG[Nle]STWS[Aib]RKK(Ac)[PEG12]K([γGlu-γGlu-γGlu-Stearoyl])-NH2)			0.0006	95	0.009	84	Non-toxic	4.3						
